Our source for the MIC values is ChEMBL document CHEMBL1151471, “Vancomycin-resistant Staphylococcus aureus isolates associated with Inc18-like vanA plasmids in Michigan” (2008).

Format in all cases: functional
For one experiment, the system named is Enterococcus avium. The experiment in a line: Antibacterial activity against Enterococcus avium AIS2007004 isolated from patients rectum by broth microdilution method. Background: Broth dilution looks for growth in wells or tubes with falling amounts of substance.
Experiment [1] relates to Enterococcus faecalis. The experiment in a line: Antibacterial activity against Enterococcus faecalis AIS2007003 isolated from patients rectum by broth microdilution method.
Experiment [2] relates to Staphylococcus aureus. The experiment in a line: Antibacterial activity against vancomycin-resistant Staphylococcus aureus AIS2006032 isolated from patients foot wound by broth microdilution method.
In experiment [3] the test system is Enterococcus faecalis. The experiment in a line: Antibacterial activity against Enterococcus faecalis HIP14333 isolated from patients rectum by broth microdilution method.
For experiment [4], the system named is Staphylococcus aureus. The experiment in a line: Antibacterial activity against vancomycin-resistant Staphylococcus aureus HIP15178 isolated from patients surgical wound by broth microdilution method.
Experiment [5] has as its system Staphylococcus aureus. The experiment in a line: Antibacterial activity against vancomycin-resistant Staphylococcus aureus HIP14300 isolated from patients foot wound by broth microdilution method.
In experiment [6] the test system is Staphylococcus aureus. The experiment in a line: Antibacterial activity against vancomycin-resistant Staphylococcus aureus AIS2006049 isolated from patients arm wound by broth microdilution method.
Experiment [7] deals with Enterococcus faecalis. The experiment in a line: Antibacterial activity against Enterococcus faecalis HIP15179 coisolated with vancomycin-resistant Staphylococcus aureus by broth microdilution method.

Converted amounts (≈) assume the structure as drawn. Bounds are passed on as bounds.

By MIC is commonly meant the lowest concentration that inhibits growth of the organism. A high value points to weaker potency.

For `C[C@H]1COc2c(N3CCN(C)CC3)c(F)cc3c(=O)c(C(=O)O)cn1c23.C[C@H]1COc2c(N3CCN(C)CC3)c(F)cc3c(=O)c(C(=O)O)cn1c23.O` [LEVOFLOXACIN], the MIC is 8 µg/mL in the experiment on Enterococcus avium; more than 8 µg/mL in the experiment with Enterococcus faecalis [1]; more than 16 µg/mL in the experiment with Staphylococcus aureus [2]; more than 8 µg/mL with Enterococcus faecalis [3]; more than 16 µg/mL with Staphylococcus aureus [4]; more than 16 µg/mL in the experiment with Staphylococcus aureus [5]. In addition, the MIC against Staphylococcus aureus [6] and in the experiment with Enterococcus faecalis [7] was 8 µg/mL throughout.
As for `CN[C@H](CC(C)C)C(=O)N[C@H]1C(=O)N[C@@H](CC(N)=O)C(=O)N[C@H]2C(=O)N[C@H]3C(=O)N[C@H](C(=O)N[C@H](C(=O)O)c4cc(O)cc(O)c4-c4cc3ccc4O)[C@H](O)c3ccc(c(Cl)c3)Oc3cc2cc(c3O[C@@H]2O[C@H](CO)[C@@H](O)[C@H](O)[C@H]2O[C@H]2C[C@](C)(N)[C@H](O)[C@H](C)O2)Oc2ccc(cc2Cl)[C@H]1O` [VANCOMYCIN], the MIC is 256 µg/mL (≈ 177 µM) with Enterococcus avium; more than 512 µg/mL against Enterococcus faecalis [1]; 1020 µg/mL (≈ 707 µM) in the experiment with Staphylococcus aureus [2]; 1020 µg/mL (≈ 707 µM) in the experiment on Enterococcus faecalis [3]; 512 µg/mL (≈ 353 µM) against Staphylococcus aureus [4]; 256 µg/mL (≈ 177 µM) with Staphylococcus aureus [5]. In addition, the MIC against Staphylococcus aureus [6] and with Enterococcus faecalis [7] was 512 µg/mL (≈ 353 µM) in each case.
Consider `CN[C@@H]1[C@H](O[C@H]2[C@H](O[C@H]3[C@H](O)[C@@H](O)[C@H](N=C(N)N)[C@@H](O)[C@@H]3N=C(N)N)O[C@@H](C)[C@]2(O)C=O)O[C@@H](CO)[C@H](O)[C@H]1O` [STREPTOMYCIN], for which the MIC against Enterococcus avium was not above 1000 µg/mL; in the experiment on Enterococcus faecalis [1], more than 1000 µg/mL; against Enterococcus faecalis [3], not above 1000 µg/mL; with Enterococcus faecalis [7], more than 1000 µg/mL.
`Cc1onc(-c2ccccc2)c1C(=O)N[C@@H]1C(=O)N2[C@@H]1SC(C)(C)[C@@H]2C(=O)O` [OXACILLIN]: the MIC with Staphylococcus aureus [2], against Staphylococcus aureus [4], against Staphylococcus aureus [5] and in the experiment on Staphylococcus aureus [6] was more than 16 µg/mL in each case.
In the case of `C[C@H]1c2cccc(O)c2C(=O)C2=C(O)[C@]3(O)C(=O)C(C(N)=O)=C(O)[C@@H](N(C)C)[C@@H]3[C@@H](O)[C@@H]21.O` [DOXYCYCLINE], the MIC against Enterococcus avium is 8 µg/mL; in the experiment on Enterococcus faecalis [1] it was 4 µg/mL; in the experiment on Staphylococcus aureus [2], 1 µg/mL; against Enterococcus faecalis [3], 8 µg/mL; with Staphylococcus aureus [4], not above 0.5 µg/mL; against Staphylococcus aureus [5], not above 0.25 µg/mL. Also, the MIC was not above 1 µg/mL in the experiment with Staphylococcus aureus [6] and not above 2 µg/mL in the experiment on Enterococcus faecalis [7].
On to GENTAMICIN, for which the MIC against Enterococcus avium was more than 500 µg/mL; in the experiment with Enterococcus faecalis [1], more than 500 µg/mL; with Staphylococcus aureus [2], less than 2 µg/mL; in the experiment on Enterococcus faecalis [3], more than 500 µg/mL; with Staphylococcus aureus [4] it was less than 2 µg/mL; in the experiment with Staphylococcus aureus [5] it was less than 2 µg/mL. Also, the MIC is less than 2 µg/mL in the experiment with Staphylococcus aureus [6] and more than 500 µg/mL in the experiment on Enterococcus faecalis [7].
In the case of `CC(=O)NC[C@H]1CN(c2ccc(N3CCOCC3)c(F)c2)C(=O)O1` [LINEZOLID], 2 µg/mL (≈ 5.93 µM) was the least that counted as inhibitory against Enterococcus avium (MIC).
As for `CO[C@H]1/C=C/O[C@@]2(C)Oc3c(C)c(O)c4c(O)c(c(/C=N/N5CCN(C)CC5)c(O)c4c3C2=O)NC(=O)/C(C)=C\C=C\[C@H](C)[C@H](O)[C@@H](C)[C@@H](O)[C@@H](C)[C@H](OC(C)=O)[C@@H]1C` [RIFAMPIN], the MIC against Enterococcus avium is 1 µg/mL (≈ 1.22 µM); with Enterococcus faecalis [1] it was 1 µg/mL (≈ 1.22 µM); against Staphylococcus aureus [2] it was not above 0.5 µg/mL; against Enterococcus faecalis [3] it was 1 µg/mL (≈ 1.22 µM); against Staphylococcus aureus [4], not above 0.5 µg/mL; in the experiment on Staphylococcus aureus [5], not above 0.5 µg/mL. In addition, the MIC in the experiment with Staphylococcus aureus [6] is not above 0.5 µg/mL; in the experiment on Enterococcus faecalis [7] it was 2 µg/mL (≈ 2.43 µM).
For `CCCCCCCCCC(=O)N[C@@H](Cc1c[nH]c2ccccc12)C(=O)N[C@H](CC(N)=O)C(=O)N[C@@H](CC(=O)O)C(=O)N[C@@H]1C(=O)NCC(=O)N[C@@H](CCCN)C(=O)N[C@@H](CC(=O)O)C(=O)N[C@H](C)C(=O)N[C@@H](CC(=O)O)C(=O)NCC(=O)N[C@H](CO)C(=O)N[C@@H]([C@H](C)CC(=O)O)C(=O)N[C@@H](CC(=O)c2ccccc2N)C(=O)O[C@@H]1C`, the MIC against Enterococcus avium is 1 µg/mL (≈ 0.617 µM); against Enterococcus faecalis [1] it was 2 µg/mL (≈ 1.23 µM); in the experiment on Staphylococcus aureus [2], 1 µg/mL (≈ 0.617 µM); in the experiment on Staphylococcus aureus [4], not above 0.5 µg/mL; against Staphylococcus aureus [5], not above 0.5 µg/mL; against Staphylococcus aureus [6] it was 2 µg/mL (≈ 1.23 µM). In the experiment with Enterococcus faecalis [7], this compound yielded an MIC of 1 µg/mL (≈ 0.617 µM).
Consider `CCC[C@@H]1C[C@@H](C(=O)N[C@@H]([C@H]2O[C@H](SC)[C@H](O)[C@@H](O)[C@H]2O)[C@H](C)Cl)N(C)C1` [CLINDAMYCIN], for which the MIC in the experiment on Staphylococcus aureus [2], against Staphylococcus aureus [4], with Staphylococcus aureus [5] and against Staphylococcus aureus [6] was more than 16 µg/mL each time.
In the case of `CC[C@H]1OC(=O)[C@H](C)[C@@H](O[C@H]2C[C@@](C)(OC)[C@@H](O)[C@H](C)O2)[C@H](C)[C@@H](O[C@@H]2O[C@H](C)C[C@H](N(C)C)[C@H]2O)[C@](C)(O)C[C@@H](C)C(=O)[C@H](C)[C@@H](O)[C@]1(C)O` [ERYTHROMYCIN], the minimal inhibitory concentration (MIC) with Enterococcus avium, with Enterococcus faecalis [1], with Staphylococcus aureus [2], in the experiment on Enterococcus faecalis [3], against Staphylococcus aureus [4] and with Staphylococcus aureus [5] was more than 8 µg/mL each time. In addition, the MIC in the experiment on Staphylococcus aureus [6] and against Enterococcus faecalis [7] was more than 8 µg/mL throughout.
